Data as given in patent publication US5070210A, “Novel ketenimines as intermediates for insecticides” (ICI Americas Inc., priority 1990, dated 1991).

Key:
Type in all cases: in vivo
[1] = system: Housefly [Musca domestica]; assay: Housefly insecticidal test; details: μg per 25 female flies; mortality after 48 hours
Summary of the method: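 Acetone solutions (with 0.01% peanut oil) dried onto dish bottoms, then 25 female flies, 1-2 days old, caged over the residue with sugar water. Mortality scored at 48 hours; LC50 from dosage-mortality curves, in μg per 25 female flies, top level 100 μg.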

[2] = system: Maize weevil [Sitophilus Zeamais (Motschulsky)]; assay: Maize weevil insecticidal test; details: adult weevils, percent in solution; 48 hours
Method: The compounds in Tables 1 and 2 above were tested for insecticidal activity using the following testing procedures. LC50 values, based on the results of these tests and calculated according to dosage-mortality curves, are expressed in Table 3.
Maize weevil [Sitophilus Zeamais (Motschulsky)]:
Test compounds were diluted in a 50:50 acetone:water solution. Four corn seeds [Zea mays (L.)] which had been immersed in test solutions for 2-3 seconds and allowed to dry were placed in containers together with 10 adult weevils. The containers were covered and kept at a temperature of about 25° C. Mortality was recorded after 48 hours. Test concentrations ranged from 0.01% down to that at which 50% mortalilty occurred. The LC50 values are expressed below in Table 3 under the heading "MW" in terms of percent of the test compound in solution.

[3] = system: Cabbage Looper [Trichoplusia ni (Hubner)]; assay: Cabbage looper insecticidal test; details: second-instar larvae, percent in solution; 3-5 days
Summary of the method: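 Steps: dilute compound in 50-50 acetone-water from 0.1% downward; immerse cotyledon pieces 2-3 s and dry; place in humid petri dishes with five second-instar larvae; record mortality at 3-5 days. Dosage-mortality curves yield LC50 as percent in solution.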

[4] = system: Tobacco Budworm [Heliothis virescens (Fabricius)] eggs; assay: Tobacco budworm egg test; details: 2-day old eggs, percent in solution
Summary of the method: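 Mortality of dipped eggs served as read-out, recorded after untreated controls hatched and began feeding. Treatments used acetone solutions from 0.1% downward, with eggs incubated at 78° F; LC50 is expressed as percent of compound in the solution.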

Structure (SMILES)	LC50, HF [1]	LC50, MW [2]	LC50, CL [3]	LC50, TBW, E (TBW-E) [4]
Cc1ccc(N=C(OCc2ccc(F)c(Oc3ccc(Cl)cc3)c2)C(C)C)cc1C [Compound 406]	< 100 µg	> 0.01%	> 0.1%	< 0.1%
Cc1cc(N=C(OCc2ccc(F)c(Oc3ccc(Cl)cc3)c2)C(C)C)ccc1Br [Compound 407]	> 100 µg	> 0.01%	> 0.1%	0.05%
COc1ccc(N=C(OCc2ccc(F)c(Oc3ccc(F)cc3)c2)C(C)C)cc1Cl [Compound 408]	< 100 µg	> 0.01%	0.0015%	0.02%
COc1ccc(N=C(OCc2ccc(F)c(Oc3ccccc3)c2)C(C)C)cc1Cl [Compound 409]	< 100 µg	> 0.01%	0.0017%	0.025%
COc1ccc(N=C(OCc2ccc(F)c(Oc3ccc(Cl)cc3)c2)C(C)C)cc1Cl [Compound 410]	< 100 µg	> 0.01%	> 0.1%	> 0.1%
CCc1ccccc1N=C(OCc1cccc(Oc2ccc(F)cc2)c1)C(C)C [Compound 411]	< 100 µg	> 0.01%	> 0.1%	> 0.1%
COc1ccc(N=C(OCc2ccc(F)c(Oc3ccc(Cl)cc3)c2)C(C)C)cc1 [Compound 412]	< 100 µg	> 0.01%	> 0.1%	> 0.1%
CC(C)C(=Nc1ccc(F)c(I)c1)OCc1cccc(Oc2ccc(Cl)cc2)c1 [Compound 413]	< 100 µg	> 0.01%	0.0007%	0.04%
CC(C)C(=Nc1ccc(S(C)(=O)=O)cc1)OCc1ccc(F)c(Oc2ccc(F)cc2)c1 [Compound 414]	< 100 µg	> 0.01%	0.0024%	> 0.1%
C=C(C)C(=Nc1ccc(F)c(Cl)c1)OCc1ccc(F)c(Oc2ccc(Cl)cc2)c1 [Compound 415]	< 100 µg	> 0.01%	0.00075%	0.035%
C=C(C)C(=Nc1ccc(F)c(Cl)c1)OCc1ccc(F)c(Oc2ccccc2)c1 [Compound 416]	< 100 µg	> 0.01%	0.00027%	0.018%
C=C(C)C(=Nc1ccc(F)c(Cl)c1)OCc1cccc(Oc2ccccc2)c1 [Compound 417]	< 100 µg	> 0.01%	0.0008%	0.04%
CC(C)C(=Nc1ccc(OC(F)(F)C(F)Cl)cc1)OCc1cccc(Oc2ccccc2)c1 (centres unmarked) [Compound 418]	> 100 µg	> 0.01%	> 0.1%	> 0.1%
CC(C)C(=Nc1ccc(OC(F)(F)C(F)Cl)cc1)OCc1ccc(F)c(Oc2ccccc2)c1 (centres unmarked) [Compound 419]	> 100 µg	> 0.01%	> 0.1%	> 0.1%
CC(C)C(=Nc1ccc(OCC(F)(F)F)c(Cl)c1)OCc1cccc(Oc2ccc(F)cc2)c1 [Compound 420]	> 100 µg	> 0.01%	0.00075%	0.05%
CC(C)C(=Nc1ccc(OCC(F)(F)F)c(Cl)c1)OCc1cccc(Oc2ccc(Cl)cc2)c1 [Compound 421]	> 100 µg	> 0.01%	0.002%	< 0.1%
CC(C)C(=Nc1ccc(OCC(F)(F)F)cc1)OCc1ccc(F)c(Oc2ccccc2)c1 [Compound 422]	< 100 µg	> 0.01%	0.00075%	0.05%
CC(C)C(=Nc1ccc(OCC(F)(F)F)cc1)OCc1cccc(Oc2ccccc2)c1 [Compound 423]	> 100 µg	> 0.01%	0.002%	> 0.1%
CC(C)C(=Nc1ccc(OCC(F)(F)F)c(Cl)c1)OCc1ccc(F)c(Oc2ccccc2)c1 [Compound 424]	> 100 µg	> 0.01%	0.00038%	0.035%

Structure (SMILES)	LC50, HF [1]	LC50, MW [2]	LC50, CL [3]	LC50, TBW, E (TBW-E) [4]
CC(C)C(=Nc1ccc(OCC(F)(F)F)c(Cl)c1)OCc1cccc(Oc2ccccc2)c1 [Compound 425]	> 100 µg	> 0.01%	0.00075%	> 0.1%
CCOc1cccc(N=C(OCc2ccc(F)c(Oc3ccc(F)cc3)c2)C(C)C)c1 [Compound 426]	> 100 µg	> 0.01%	0.002%	> 0.1%
CC(C)C(=Nc1ccc(C(F)(F)F)cc1Cl)OCc1cccc(Oc2ccc(F)cc2)c1 [Compound 427]	> 100 µg	> 0.01%	< 0.1%	> 0.1%
CC(C)C(=Nc1ccc(C(F)(F)F)cc1Cl)OCc1ccc(F)c(Oc2ccccc2)c1 [Compound 428]	> 100 µg	> 0.01%	0.0017%	> 0.1%
CC(C)C(=Nc1ccc(OCC(F)(F)F)c(F)c1)OCc1cccc(Oc2ccc(Cl)cc2)c1 [Compound 429]	> 100 µg	> 0.01%	0.0017%	< 0.1%
C=C(C)C(=Nc1ccc(C(F)(F)F)cc1)OCc1cccc(Oc2ccccc2)c1 [Compound 430]	< 100 µg	0.004%	0.001%	0.032%
CC(C)C(=Nc1ccc(C(F)(F)F)c(Br)c1)OCc1ccc(F)c(Oc2ccccc2)c1 [Compound 434]	< 100 µg	0.009%	0.0017%	> 0.1%
COc1ccc(N=C(OCc2ccc(F)c(Oc3ccccc3)c2)C(C)C)cc1F [Compound 435]	< 100 µg	> 0.01%	0.002%	0.04%
CC(C)C(=Nc1cccc(OC(F)(F)F)c1)OCc1ccc(F)c(Oc2ccc(Cl)cc2)c1 [Compound 436]	< 100 µg	> 0.01%	0.00075%	< 0.1%
CC(C)C(=Nc1cccc(OC(F)(F)F)c1)OCc1ccc(F)c(Oc2ccccc2)c1 [Compound 437]	< 100 µg	> 0.01%	0.00075%	0.025%
CCc1ccc(N=C(OCc2cccc(Oc3ccc(F)cc3)c2)C(C)C)cc1Cl [Compound 438]	> 100 µg	> 0.01%	0.0009%	< 0.1%
CCOc1ccc(N=C(OCc2ccc(F)c(Oc3ccccc3)c2)C(C)C)cc1F [Compound 439]	> 100 µg	> 0.01%	0.00045%	> 0.1%
CCCc1ccc(N=C(OCc2ccc(F)c(Oc3ccc(F)cc3)c2)C(C)C)cc1 [Compound 440]	> 100 µg	> 0.01%	0.002%	< 0.1%
CC(C)C(=Nc1ccc(Cl)c(F)c1)OCc1ccc(F)c(Oc2ccc(F)cc2)c1 [Compound 441]	< 100 µg	0.006%	0.000025%	0.016%
C=C(C)C(=Nc1ccc(C(F)(F)F)cc1)OCc1cccc(Oc2ccc(F)cc2)c1 [Compound 442]	< 100 µg	> 0.01%	0.0007%	0.035%
Fc1ccc(COC(=Nc2ccc(C(F)(F)F)cc2)C2CC2)cc1Oc1ccccc1 [Compound 443]	< 100 µg	< 0.01%	0.00015%	0.017%
Fc1ccc(COC(=Nc2ccc(C(F)(F)F)cc2)C2CC2)cc1Oc1ccc(Cl)cc1 [Compound 444]	> 100 µg	> 0.01%	0.00015%	0.023%
CC(C)C(=Nc1ccc(C(F)(F)F)cc1[N+](=O)[O-])OCc1ccc(F)c(Oc2ccccc2)c1 [Compound 445]	< 100 µg	> 0.01%	0.00045%	> 0.1%
CCOc1ccc(N=C(OCc2cccc(Oc3ccc(F)cc3)c2)C(C)C)cc1Br [Compound 446]	> 100 µg	> 0.01%	0.0008%	< 0.1%
